Test results: DBAASP
Values after ≈ are worked out from the molar mass of the structure shown. Values joined by “and” are separate entries in the source; they are usually repeats but may differ in a detail not shown here. Equal values may be shown once. Values belong to the compound of their own block, whether it stands above or below them.

What was measured:
Assay in all cases: ≥ marks a high value that may be exact or a test limit, other limits are often not marked, values filed in µg/mL are converted to µM
[1] = system: Salmonella enterica subsp. enterica serovar Choleraesuis CMCC 50020
[2] = system: Bacillus subtilis 1A751
[3] = system: Escherichia coli ATCC 25922
[4] = system: Staphylococcus aureus ATCC 25923
[5] = system: Escherichia coli DC2
[6] = system: Staphylococcus epidermidis C621
[7] = system: Enterococcus faecalis ATCC 29212
[8] = system: Pseudomonas aeruginosa ATCC 27853
[9] = system: Corynebacterium xerosis C875
[10] = system: Bacillus subtilis ATCC 6633
[11] = system: Escherichia coli UB1005
[12] = system: Salmonella typhimurium
[13] = system: Listeria monocytogenes
[14] = system: Staphylococcus epidermidis ATCC 9709
[15] = system: Escherichia coli ATCC 25404
[16] = system: Escherichia coli O157
[17] = system: Micrococcus luteus ATCC 10420
[18] = system: Staphylococcus aureus ATCC 43300
[19] = system: Staphylococcus aureus ATCC 29213
[20] = system: Candida albicans ATCC 14053
[21] = system: Candida tropicalis ATCC 13803
[22] = system: Escherichia coli D31
[23] = system: Helicobacter pylori
[24] = system: Escherichia coli
[25] = system: Staphylococcus aureus A170
[26] = system: Salmonella enterica subsp. enterica serovar Paratyphi A
[27] = system: Staphylococcus epidermidis
[28] = system: Streptococcus gordonii Challis DL1
[29] = system: Streptococcus mutans
[30] = system: Streptococcus mitis ATCC 903
[31] = system: Streptococcus sanguinis NY101
[32] = system: Lacticaseibacillus casei ATCC 4646
[33] = system: Veillonella atypica PK1910
[34] = system: Candida albicans ATCC 20032
[35] = system: Escherichia coli CIB 84492
[36] = system: Candida albicans CIB 45437
[37] = system: Staphylococcus aureus CIB 85462

Structure (SMILES): CC[C@H](C)[C@@H]1NC(=O)CNC(=O)[C@H](CCCCN)NC(=O)[C@H](CC(N)=O)NC(=O)[C@H](CCCN=C(N)N)NC(=O)[C@H](CCCN=C(N)N)NC(=O)[C@@H](NC(=O)[C@H](CO)NC(=O)[C@H](CCC(N)=O)NC(=O)[C@H](CO)NC(=O)[C@H](CC(N)=O)NC(=O)[C@H](CCCN=C(N)N)NC(=O)[C@@H](NC(=O)CNC(=O)[C@@H](N)CCC(N)=O)C(C)C)CSSC[C@@H]2NC(=O)[C@H](CCCCN)NC(=O)[C@H](C(C)C)NC(=O)[C@H](CCC(N)=O)NC(=O)[C@H](C)NC(=O)CNC(=O)[C@H](CC(C)C)NC(=O)[C@@H]3CSSC[C@H](NC1=O)C(=O)N[C@@H](C(C)C)C(=O)N1CCC[C@H]1C(=O)N[C@@H]([C@@H](C)CC)C(=O)N[C@@H](CCCN=C(N)N)C(=O)N[C@@H](CSSC[C@@H](C(=O)N[C@@H](CCCN=C(N)N)C(=O)N[C@@H](CCCN=C(N)N)C(=O)N[C@@H](CCCCN)C(=O)O)NC2=O)C(=O)N1CCC[C@H]1C(=O)NCC(=O)N[C@@H](CO)C(=O)N[C@@H](CCSC)C(=O)N[C@@H](CCCN=C(N)N)C(=O)N[C@@H](CCC(N)=O)C(=O)N[C@@H]([C@@H](C)CC)C(=O)NCC(=O)N[C@@H]([C@@H](C)O)C(=O)N3 [QGVRNSQSCRRNKGICVPIRCPGSMRQIGTCLGAQVKCCRRK]
MIC [20]: 9.66 µM (≈ 44.8 µg/mL) | MIC [8]: 19.1 µM (≈ 88.6 µg/mL) | MIC [21]: 4.87 µM (≈ 22.6 µg/mL) | MIC [19]: 19.1 µM (≈ 88.6 µg/mL) | MIC [22]: 4.87 µM (≈ 22.6 µg/mL)

Structure (SMILES): C[C@@H](O)[C@H](NC(=O)[C@H](CS)NC(=O)[C@H](Cc1ccccc1)NC(=O)[C@H](CS)NC(=O)[C@H](CCCN=C(N)N)NC(=O)[C@H](CCCN=C(N)N)NC(=O)[C@H](CCCN=C(N)N)NC(=O)[C@H](Cc1ccccc1)NC(=O)CNC(=O)[C@H](CCCN=C(N)N)NC(=O)[C@H](CS)NC(=O)[C@H](CC(N)=O)NC(=O)CNC(=O)CNC(=O)[C@H](CO)NC(=O)[C@@H](N)Cc1ccccc1)C(=O)N[C@@H](CCCCN)C(N)=O [FSGGNCRGFRRRCFCTK]
MIC [23]: 7.52 µM and 5.01 µM and 6.01 µM | MIC [24]: 7.52 µM (≈ 15 µg/mL) | MIC [13]: 20 µM (≈ 40 µg/mL) | MIC [25]: 20 µM (≈ 40 µg/mL) | MIC [26]: 7.52 µM (≈ 15 µg/mL) | MIC [27]: 20 µM (≈ 40 µg/mL)

Structure (SMILES): CC[C@H](C)[C@H](N)C(=O)N[C@@H](CCCCN)C(=O)N[C@@H](CCC(N)=O)C(=O)N[C@@H](CC(C)C)C(=O)N[C@@H](CC(C)C)C(=O)N[C@@H](Cc1cnc[nH]1)C(=O)N[C@@H](Cc1ccccc1)C(=O)N[C@@H](Cc1ccccc1)C(=O)N[C@@H](CCC(N)=O)C(=O)N[C@@H](CCCN=C(N)N)C(=O)N[C@@H](Cc1ccccc1)C(=O)NCC(=O)NCC(=O)NCC(=O)N[C@@H](CCCN=C(N)N)C(=O)N[C@@H](Cc1c[nH]c2ccccc12)C(=O)N[C@@H](CCCN=C(N)N)C(=O)N[C@@H](Cc1c[nH]c2ccccc12)C(=O)N[C@@H](CCCN=C(N)N)C(=O)N[C@@H](Cc1c[nH]c2ccccc12)C(=O)N[C@@H](Cc1ccccc1)C(N)=O [IKQLLHFFQRFGGGRWRWRWF]
MIC [28]: 11.3 µM (≈ 32 µg/mL) | MIC [29]: 2.83 µM (≈ 8 µg/mL) | MIC [30]: 22.7 µM (≈ 64 µg/mL) | MIC [31]: 5.67 µM (≈ 16 µg/mL) | MIC [32]: 5.67 µM (≈ 16 µg/mL) | MIC [33]: 2.83 µM (≈ 8 µg/mL)

Second part, led by results:

MIC [2]: ≥ 53.4 µM | MIC [3]: 3.34 µM (≈ 7.99 µg/mL) | MIC [4]: 3.34 µM (≈ 7.99 µg/mL)
Structure (SMILES): CC[C@H](C)[C@H](NC(=O)[C@H](CCCCN)NC(=O)[C@@H](NC(=O)[C@H](CC(C)C)NC(=O)[C@@H](NC(=O)[C@H](CCCCN)NC(=O)[C@H](CC(C)C)NC(=O)[C@H](Cc1ccccc1)NC(=O)[C@H](Cc1ccccc1)NC(=O)[C@H](CCCCN)NC(=O)[C@@H](N)CCCCN)C(C)C)[C@@H](C)O)C(=O)N[C@@H](CCCN=C(N)N)C(=O)N[C@H]1CSSC[C@@H](C(=O)N[C@@H](CCCN=C(N)N)C(=O)N[C@H](C(=O)O)[C@@H](C)O)NC(=O)CNC(=O)CNC(=O)[C@H](C)NC(=O)[C@H](C(C)C)NC(=O)[C@H](CCCCN)NC1=O [KKFFLKVLTKIRCKVAGGCRT]
MIC [1]: 6.67 µM (≈ 16 µg/mL)

MIC [5]: 16 µM (≈ 29.4 µg/mL) | MIC [6]: ≥ 32 µM | MIC [7]: > 32 µM | MIC [8]: > 32 µM | MIC [3]: > 32 µM | MIC [9]: 4 µM (≈ 7.34 µg/mL) | MIC [4]: > 32 µM | MIC [10]: 16 µM (≈ 29.4 µg/mL) | MIC [11]: ≥ 32 µM
Structure (SMILES): C[C@H](NC(=O)[C@H](C)NC(=O)[C@H](CCCCN)NC(=O)[C@H](CCCCN)NC(=O)[C@@H](N)CCCCN)C(=O)N[C@@H](C)C(=O)N[C@@H](Cc1ccccc1)C(=O)N[C@@H](C)C(=O)N[C@@H](C)C(=O)N[C@@H](Cc1c[nH]c2ccccc12)C(=O)N[C@@H](C)C(=O)N[C@@H](C)C(=O)N[C@@H](Cc1ccccc1)C(=O)N[C@@H](C)C(=O)N[C@@H](CCCCN)C(=O)N[C@@H](CCCCN)C(=O)N[C@@H](CCCCN)C(N)=O [KKKAAAFAAWAAFAKKK]

MIC [12]: ≥ 64 µM | MIC [13]: ≥ 64 µM | MIC [14]: 16 µM (≈ 23 µg/mL) | MIC [15]: ≥ 64 µM | MIC [16]: ≥ 64 µM | MIC [17]: 8 µM (≈ 11.5 µg/mL) | MIC [18]: 16 µM (≈ 23 µg/mL) | MIC [19]: 8 µM (≈ 11.5 µg/mL)
Structure (SMILES): CC(C)C[C@H](NC(=O)[C@H](CC(C)C)NC(=O)[C@H](Cc1cnc[nH]1)NC(=O)[C@H](CO)NC(=O)[C@H](CC(C)C)NC(=O)[C@H](C)NC(=O)[C@H](Cc1cnc[nH]1)NC(=O)[C@H](Cc1ccccc1)NC(=O)[C@H](CC(C)C)NC(=O)[C@H](C)NC(=O)CNC(=O)[C@H](CC(C)C)NC(=O)[C@@H](N)Cc1ccccc1)C(=O)O [FLGALFHALSHLL]

MIC [3]: 7.05 µM (≈ 18.8 µg/mL) | MIC [34]: ≥ 37.5 µM | MIC [4]: 3.52 µM (≈ 9.4 µg/mL) | MIC [10]: ≥ 37.5 µM
Structure (SMILES): CC[C@H](C)[C@H](NC(=O)CN)C(=O)NCC(=O)NCC(=O)N[C@@H](CCCCN)C(=O)N[C@H](C(=O)N[C@@H](CC(C)C)C(=O)NCC(=O)NCC(=O)N[C@@H](CC(C)C)C(=O)N[C@@H](CCCCN)C(=O)N[C@H](C(=O)N[C@@H](C)C(=O)N[C@@H](CC(C)C)C(=O)N[C@@H](CCCCN)C(=O)NCC(=O)N[C@@H](C)C(=O)N[C@@H](C)C(=O)N[C@@H](CCCCN)C(=O)N[C@@H](CCC(=O)O)C(=O)N[C@@H](CC(C)C)C(=O)N[C@@H](C)C(=O)N[C@@H](CO)C(=O)N[C@H](C(=O)N[C@@H](Cc1ccc(O)cc1)C(=O)N[C@@H](CC(C)C)C(=O)N[C@@H](Cc1cnc[nH]1)C(N)=O)[C@@H](C)O)[C@@H](C)O)[C@@H](C)CC [GIGGKILGGLKTALKGAAKELASTYLH]

MIC [35]: 15.4 µM (≈ 32 µg/mL) | MIC [36]: 30.8 µM (≈ 63.9 µg/mL) | MIC [3]: 15.4 µM (≈ 32 µg/mL) | MIC [4]: 7.69 µM (≈ 16 µg/mL) | MIC [37]: 7.69 µM (≈ 16 µg/mL)
Structure (SMILES): CC[C@H](C)[C@H](NC(=O)CN)C(=O)N[C@@H](Cc1ccccc1)C(=O)NCC(=O)N[C@@H](CCCCN)C(=O)N[C@H](C(=O)N[C@@H](CC(C)C)C(=O)NCC(=O)N[C@H](C(=O)NCC(=O)N[C@@H](CCCCN)C(=O)N[C@@H](CCCCN)C(=O)N[C@H](C(=O)N[C@@H](CC(C)C)C(=O)N[C@H]1CSSC[C@@H](C(=O)O)NC(=O)[C@H](CCSC)NC(=O)CNC(=O)[C@H](CO)NC(=O)[C@H](CC(C)C)NC(=O)CNC1=O)C(C)C)C(C)C)[C@@H](C)CC [GIFGKILGVGKKVLCGLSGMC]
